Laboratory results as given in patent US20220370416A1, “COMPOUNDS AND METHODS FOR TARGETED DEGRADATION OF KRAS” (Arvinas Operations, Inc., priority 2020, published 2022).

Columns and labels:
HiBit-KRAS^G12C [1] = molecular target: T1, HiBit-KRAS^G12C (Homo sapiens, UniProt P01116, G12C); assay: HiBit degradation assay in MiaPaCa-2 HiBit-KRas^G12C cells; format: cell-based; details: 24 hours; for Dmax: maximum degradation
How it was run: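 MiaPaCa-2 cells with CRISPR N-terminal HiBit knock-in on one endogenous KRAS^G12C allele, treated 24 hours at 37° C with compound titrated 10 μM to 20 nM (0.1% or 0.5% DMSO). Lytic HiBit luminescence normalized to DMSO, 4-parameter fit giving DC50 and Dmax; points cytotoxic to […] cells by alamar blue excluded.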

HiBit-KRAS^G12C [2] = molecular target: T1, HiBit-KRAS^G12C; assay: HiBit degradation assay in SW1573 HiBit-KRas^G12C cells; format: cell-based; parameters: expressed in transfected cells; host or cells: SW1573 (clone E6), modified pcDNA3.1 vector, TK promoter; details: 24 hours
How it was run: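 SW1573 cells stably expressing N-terminally HiBit-tagged KRAS G12C, under the TK promoter, were treated 24 h at 37 °C with 10 μM to 20 nM compound in 0.1% or 0.5% DMSO. Residual HiBit luminescence normalised to DMSO and fitted with a 4-parameter model for DC50 and Dmax. Points with ≥50% viability loss (alamar blue) excluded.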

[3] = MIA PaCa-2, MiaPaCa-2 HiBit-KRas^G12C cells, 0.5% DMSO, read-out: KRas^G12C-HiBiT (MiaPaCa; 0.5% DMSO) DMax
[4] = read-out: KRas^G12C-HiBiT (MiaPaCa; 0.5% DMSO) IC50, MiaPaCa-2 HiBit-KRas^G12C cells, 0.5% DMSO
[5] = SW1573, SW1573 HiBit-KRas^G12C, 0.5% DMSO, read-out: KRas^G12C-HiBiT (SW1573; 0.5% DMSO) Dmax**
[6] = read-out: KRas^G12C-HiBiT (SW1573; 0.5% DMSO) IC50***, SW1573 HiBit-KRas^G12C, 0.5% DMSO

T1 sequence (P01116 1-186 isoform P01116-2 G12C limits assumed): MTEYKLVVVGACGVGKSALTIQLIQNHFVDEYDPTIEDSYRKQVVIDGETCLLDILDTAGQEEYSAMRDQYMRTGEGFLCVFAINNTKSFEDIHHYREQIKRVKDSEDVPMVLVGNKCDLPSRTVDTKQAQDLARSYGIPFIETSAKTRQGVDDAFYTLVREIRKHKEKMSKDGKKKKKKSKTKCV

Row | Compound | DC50 (HiBit-KRAS^G12C [1]; read-out: KRas^G12C-HiBiT (MiaPaCa; 0.1% DMSO) IC50, MiaPaCa-2 HiBit-KRas^G12C cells, 0.1% DMSO) [nM] | DC50 (HiBit-KRAS^G12C [2]; SW1573 HiBit-KRas^G12C, 0.1% DMSO, read-out: KRas^G12C-HIBit (SW1573; 0.1% DMSO) DC50*) [nM] | Dmax (HiBit-KRAS^G12C [1]; [3]) [%] | DC50 (HiBit-KRAS^G12C [1]; [4]) [nM] | Dmax (HiBit-KRAS^G12C [2]; [5]) [%] | DC50 (HiBit-KRAS^G12C [2]; [6]) [nM] | Dmax (HiBit-KRAS^G12C [1]; MIA PaCa-2, read-out: KRas^G12C-HiBiT (MiaPaCa; 0.5% DMSO) DMax, MiaPaCa-2 HiBit-KRas^G12C cells, 0.5% DMSO) [%] | Dmax (HiBit-KRAS^G12C [2]; SW1573, read-out: KRas^G12C-HiBiT (SW1573; 0.5% DMSO) Dmax**, SW1573 HiBit-KRas^G12C, 0.5% DMSO) [%]
1 | C=CC(=O)N1CCN(c2nc(O[C@H](C)CN3CCC(OCCN4CCN(CC(=O)N[C@H](C(=O)N5C[C@H](O)C[C@H]5C(=O)N[C@@H](C)c5ccc(-c6scnc6C)cc5)C(C)(C)C)CC4)CC3)nc3c(F)c(-c4cc(O)cc5ccccc45)c(Cl)cc23)CC1 [Compound 54, (2S,4R)-1-[(2S)-2-(2-{4-[2-({1-[(2R)-2-{[6-chloro-8-fluoro-7-(3-hydroxynaphthalen-1-yl)-4-[4-(prop-2-enoyl)piperazin-1-yl]quinazolin-2-yl]oxy}propyl]piperidin-4-yl}oxy)ethyl]piperazin-1-yl}acetamido)-3,3-dimethylbutanoyl]-4-hydroxy-N-[(1S)-1-[4-(4-methyl-1,3-thiazol-5-yl)phenyl]ethyl]pyrrolidine-2-carboxamide] | > 1000 | < 100 |  |  |  |  |  | 
2 | C=CC(=O)N1CCN(c2nc(OCCN3CCC(C)(COc4cc([C@@H](C(=O)N5C[C@H](O)C[C@H]5C(=O)N[C@@H](C)c5ccc(-c6scnc6C)cc5)C(C)C)on4)CC3)nc3c(F)c(-c4cc(O)cc5ccccc45)c(Cl)cc23)C[C@@H]1CC#N [Compound 132, (2S,4R)-1-[(2S)-2-[3-({1-[2-({6-chloro-4-[(3S)-3-(cyanomethyl)-4-(prop-2-enoyl)piperazin-1-yl]-8-fluoro-7-(3-hydroxynaphthalen-1-yl)quinazolin-2-yl}oxy)ethyl]-4-methylpiperidin-4-yl}methoxy)-1,2-oxazol-5-yl]-3-methylbutanoyl]-4-hydroxy-N-[(1S)-1-[4-(4-methyl-1,3-thiazol-5-yl)phenyl]ethyl]pyrrolidine-2-carboxamide] |  |  |  | > 1000 |  | > 1000 |  | 
3 | C=C(F)C(=O)N1CCN(c2nc(OCCN3CCC(C)(COc4cc([C@H](C(=O)N5C[C@H](O)C[C@H]5C(=O)N[C@@H](C)c5ccc(-c6ccnn6C)cc5)C(C)C)on4)CC3)nc3c(F)c(-c4cc(O)cc5ccccc45)c(Cl)cc23)C[C@@H]1CC#N (atropisomer, axis not shown) [Compound 124, (2S,4R)-1-[(2R)-2-[3-({1-[2-({6-chloro-4-[(3S)-3-(cyanomethyl)-4-(2-fluoroprop-2-enoyl)piperazin-1-yl]-8-fluoro-7-(3-hydroxynaphthalen-1-yl)quinazolin-2-yl}oxy)ethyl]-4-methylpiperidin-4-yl}methoxy)-1,2-oxazol-5-yl]-3-methylbutanoyl]-4-hydroxy-N-[(1S)-1-[4-(1-methyl-1H-pyrazol-5-yl)phenyl]ethyl]pyrrolidine-2-carboxamide] |  |  | 35 to 70 | < 100 | 35 to 70 | < 100 |  | 
4 | C=CC(=O)N1CCN(c2nc(OCCN3CCC(F)(CN(C)CC(=O)N[C@H](C(=O)N4C[C@H](O)C[C@H]4C(=O)N[C@@H](C)c4ccc(-c5scnc5C)cc4)C(C)(C)C)CC3)nc3c(F)c(-c4cc(O)cc5ccccc45)c(Cl)cc23)C[C@@H]1CC#N [Compound 120, (2S,4R)-1-[(2S)-2-{2-[({1-[2-({6-chloro-4-[(3S)-3-(cyanomethyl)-4-(prop-2-enoyl)piperazin-1-yl]-8-fluoro-7-(3-hydroxynaphthalen-1-yl)quinazolin-2-yl}oxy)ethyl]-4-fluoropiperidin-4-yl}methyl)(methyl)amino]acetamido}-3,3-dimethylbutanoyl]-4-hydroxy-N-[(1S)-1-[4-(4-methyl-1,3-thiazol-5-yl)phenyl]ethyl]pyrrolidine-2-carboxamide] |  |  |  | 100 to 1000 |  | 100 to 1000 | 35 to 70 | 35 to 70
5 | C=CC(=O)N1CCN(c2nc(OCCN3CCC(COCC(=O)N[C@H](C(=O)N4C[C@@H](O)C[C@H]4C(=O)N[C@@H](C)c4ccc(-c5scnc5C)cc4)C(C)(C)C)CC3)nc3c(F)c(-c4cc(O)cc5ccccc45)c(Cl)cc23)C[C@@H]1CC#N (atropisomer, axis not shown) [Compound 162, (2S,4S)-1-[(2S)-2-[2-({1-[2-({6-chloro-4-[(3S)-3-(cyanomethyl)-4-(prop-2-enoyl)piperazin-1-yl]-8-fluoro-7-(3-hydroxynaphthalen-1-yl)quinazolin-2-yl}oxy)ethyl]piperidin-4-yl}methoxy)acetamido]-3,3-dimethylbutanoyl]-4-hydroxy-N-[(1S)-1-[4-(4-methyl-1,3-thiazol-5-yl)phenyl]ethyl]pyrrolidine-2-carboxamide] |  |  | 35 to 70 |  | < 35 |  |  | 

The next lines start with results.

Row | DC50 (HiBit-KRAS^G12C [1]; read-out: KRas^G12C-HiBiT (MiaPaCa; 0.1% DMSO) IC50, MiaPaCa-2 HiBit-KRas^G12C cells, 0.1% DMSO) [nM] | DC50 (HiBit-KRAS^G12C [2]; SW1573 HiBit-KRas^G12C, 0.1% DMSO, read-out: KRas^G12C-HIBit (SW1573; 0.1% DMSO) DC50*) [nM] | Dmax (HiBit-KRAS^G12C [1]; [3]) [%] | DC50 (HiBit-KRAS^G12C [1]; [4]) [nM] | Dmax (HiBit-KRAS^G12C [2]; [5]) [%] | DC50 (HiBit-KRAS^G12C [2]; [6]) [nM] | Compound | Dmax (HiBit-KRAS^G12C [1]; MIA PaCa-2, read-out: KRas^G12C-HiBiT (MiaPaCa; 0.5% DMSO) DMax, MiaPaCa-2 HiBit-KRas^G12C cells, 0.5% DMSO) [%] | Dmax (HiBit-KRAS^G12C [2]; SW1573, read-out: KRas^G12C-HiBiT (SW1573; 0.5% DMSO) Dmax**, SW1573 HiBit-KRas^G12C, 0.5% DMSO) [%]
6 |  |  | > 70 | > 1000 | > 70 | 100 to 1000 | C=CC(=O)N1CCN(c2nc(OCCN3CCC(F)(COCC(=O)N[C@H](C(=O)N4C[C@H](O)C[C@H]4C(=O)N[C@@H](C)c4ccc(-c5scnc5C)cc4)C(C)(C)C)CC3)nc3c(F)c(-c4cc(O)cc5ccccc45)c(Cl)cc23)C[C@@H]1CC#N [Compound 150, (2S,4R)-1-[(2S)-2-[2-({1-[2-({6-chloro-4-[(3S)-3-(cyanomethyl)-4-(prop-2-enoyl)piperazin-1-yl]-8-fluoro-7-(3-hydroxynaphthalen-1-yl)quinazolin-2-yl}oxy)ethyl]-4-fluoropiperidin-4-yl}methoxy)acctamido]-3,3-dimethylbutanoyl]-4-hydroxy-N-[(1S)-1-[4-(4-methyl-1,3-thiazol-5-yl)phenyl]ethyl]pyrrolidine-2-carboxamide] |  | 
7 |  |  | 35 to 70 | 100 to 1000 | 35 to 70 | < 100 | C=CC(=O)N1CCN(c2nc(OCCN3CCC(COc4cc([C@@H](C(=O)N5C[C@H](O)C[C@H]5C(=O)N[C@@H](C)c5ccc(C#N)cc5)C(C)C)on4)CC3)nc3c(F)c(-c4cc(O)cc5ccccc45)c(Cl)cc23)C[C@@H]1CC#N [Compound 161, (2S,4R)-1-[(2S)-2-[3-({1-[2-({6-chloro-4-[(3S)-3-(cyanomethyl)-4-(prop-2-enoyl)piperazin-1-yl]-8-fluoro-7-(3-hydroxynaphthalen-1-yl)quinazolin-2-yl}oxy)ethyl]piperidin-4-yl}methoxy)-1,2-oxazol-5-yl]-3-methylbutanoyl]-N-[(1S)-1-(4-cyanophenyl)ethyl]-4-hydroxypyrrolidine-2-carboxamide] |  | 
8 |  |  | > 70 | 100 to 1000 | > 70 | 100 to 1000 | C=CC(=O)N1CCN(c2nc(O[C@H](C)CN3CCC(COc4cc([C@H](C(=O)N5C[C@H](O)C[C@H]5C(=O)N[C@@H](C)c5ccc(-c6scnc6C)cc5)C(C)C)on4)CC3)nc3c(F)c(-c4cc(O)cc5ccccc45)c(Cl)cc23)C[C@@H]1CC#N [Compound 153, (2S,4R)-1-[(2R)-2-[3-({1-[(2R)-2-({6-chloro-4-[(3S)-3-(cyanomethyl)-4-(prop-2-enoyl)piperazin-1-yl]-8-fluoro-7-(3-hydroxynaphthalen-1-yl)quinazolin-2-yl}oxy)propyl]piperidin-4-yl}methoxy)-1,2-oxazol-5-yl]-3-methylbutanoyl]-4-hydroxy-N-[(1S)-1-[4-(4-methyl-1,3-thiazol-5-yl)phenyl]ethyl]pyrrolidine-2-carboxamide] |  | 
